Values of other authors, collected in patent US10441535B2, “Nutraceutical confectionary composition containing caffeine and L-theanine” (NeuroGum, LLC, priority 2015, dated 2019).

Details: human, in vivo

elimination half-life: 1 to 2 h
Substance: N-Ethyl-L-glutamine [L-theanine]
